Test results: ChEMBL document CHEMBL1201862, “PubChem BioAssay data set” (2004)
“And” between values parts separate entries of the source, which are not always exact repeats. Equal values may be shown once.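 Method: 48-hour compound exposure of cells in 96-well plates, five concentrations, linear interpolation of endpoints. GI50 marks 50% less growth.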 The source made the active and inactive calls. Cut-off read from the data, not from the text of the source: active = GI50 up to about 1.1 µM and inactive = higher.

Assays:
Test in all cases: NCI-60 cell line screen, 48 h
NCI-H522 = test system: NCI-H522
Malme-3M = test system: Malme-3M
OVCAR-8 = test system: OVCAR-8
A549 = test system: A549
SK-MEL-5 = test system: SK-MEL-5
CCRF-CEM = test system: CCRF-CEM
HOP-92 = test system: HOP-92
SW-620 = test system: SW-620
HCT-116 = test system: HCT-116
OVCAR-5 = test system: OVCAR-5
SN12C = test system: SN12C
SF-539 = test system: SF-539
TK-10 = test system: TK-10
HCT-15 = test system: HCT-15
NCI/ADR-RES = test system: NCI/ADR-RES
Hs-578T = test system: Hs-578T
MDA-MB-231 = test system: MDA-MB-231
PC-3 = test system: PC-3
DU-145 = test system: DU-145

Structure (SMILES) | GI50 (NCI-H522) | GI50 (Malme-3M) | GI50 (OVCAR-8) | GI50 (A549) | GI50 (SK-MEL-5) | GI50 (CCRF-CEM) | GI50 (HOP-92) | GI50 (SW-620) | GI50 (HCT-116) | GI50 (OVCAR-5) | GI50 (SN12C) | GI50 (SF-539) | GI50 (TK-10) | GI50 (HCT-15) [µM] | GI50 (NCI/ADR-RES) | GI50 (Hs-578T) | GI50 (MDA-MB-231) | GI50 (PC-3) | GI50 (DU-145)
O=C(OCc1nc2ccc(Br)cc2c(=O)n1-c1ccccc1)c1ccccc1O | 38.1 µM (inactive) | > 100 µM (inactive) | > 100 µM (inactive) | 86.5 µM (inactive) | 18.1 µM (inactive) | 48.3 µM (inactive) | > 100 µM (inactive) | > 100 µM (inactive) | > 100 µM (inactive) | > 100 µM (inactive) | > 100 µM (inactive) | > 100 µM (inactive) | > 100 µM (inactive) | – | – | – | – | – | –
N#Cc1c(-c2ccco2)cc(-c2ccc(NCc3nc4ccccc4[nH]3)cc2)nc1N | 18.8 µM (inactive) | 24.5 µM (inactive) | 20.4 µM (inactive) | 29.8 µM (inactive) | 16 µM (inactive) | 27.4 µM (inactive) | 21.4 µM (inactive) | 35.3 µM (inactive) | 18.9 µM (inactive) | 32.3 µM (inactive) | 22.5 µM (inactive) | 19.5 µM (inactive) | 26.4 µM (inactive) | 23.6 | – | – | – | – | –
COC(=O)c1nc(C(=O)OC)c2c([nH]c3ccccc32)c1C(=O)OC | > 10 µM (inactive) | > 100 µM (inactive) | > 100 µM (inactive) | > 100 µM (inactive) | 9.79 µM (inactive) | 71.1 µM (inactive) | > 100 µM (inactive) | > 100 µM (inactive) | > 100 µM (inactive) | > 100 µM (inactive) | > 100 µM (inactive) | > 100 µM (inactive) | > 100 µM (inactive) | 53.5 | – | – | – | – | –
O=C1c2ccccc2C(=O)c2c(NCCNCCO)ccc(O)c21 | 2.59 µM (inactive) | 3.18 µM (inactive) | 2.39 µM (inactive) | 2.45 µM (inactive) | 3.18 µM (inactive) | 3.15 µM (inactive) | 3.21 µM (inactive) | 2.26 µM (inactive) | 1.81 µM (inactive) | 3.4 µM (inactive) | 1.45 µM (inactive) | 2.9 µM (inactive) | 4.65 µM (inactive) | 3.46 | – | – | – | – | –
CC(C)CC[C@H](O)[C@@H](C)[C@H]1[C@@H](OC2OC(C)C(O)C(O)C2O)C[C@H]2[C@@H]3CC=C4C[C@@H](O)CC[C@]4(C)[C@H]3[C@@H](O)C[C@]12C (stereo not given in full) | 3.69 µM (inactive) | 1.85 µM (inactive) | > 100 µM (inactive) | – | 3.35 µM (inactive) | 0.25 µM (active) | 0.312 µM (active) | 0.533 µM (active) | 0.258 µM (active) | > 24.9 µM (inactive) | > 100 µM (inactive) | 0.0337 µM (active) | 0.692 µM (active) | > 56.1 | > 92.9 µM (inactive) | 0.121 µM (active) | – | – | –
O=C1C/C(=C/c2ccc(/C=C3/CC(=O)N(c4cccc(Br)c4)C3=O)cc2)C(=O)N1c1cccc(Br)c1 | > 100 µM (inactive) | > 100 µM (inactive) | > 100 µM (inactive) | > 100 µM (inactive) | > 100 µM (inactive) | 66.1 µM (inactive) | 50.2 µM (inactive) | > 100 µM (inactive) | > 100 µM (inactive) | > 100 µM (inactive) | > 100 µM (inactive) | 51.5 µM (inactive) | > 100 µM (inactive) | > 100 | – | – | – | – | –
CCCCCC(/C=C/[C@@H]1[C@H]2CC(=O)O[C@H]2C[C@H]1N1CCOCC1)OC1CCCO1 (stereo not given in full) | > 100 µM (inactive) | > 100 µM (inactive) | > 100 µM (inactive) | > 100 µM (inactive) | > 100 µM (inactive) | > 100 µM (inactive) | > 100 µM (inactive) | > 100 µM (inactive) | > 100 µM (inactive) | > 100 µM (inactive) | – | > 100 µM (inactive) | > 100 µM (inactive) | > 100 | – | – | – | – | –
C/C=C/C=C/[C@H]1Cc2cc(O)cc(O)c2O1 | 36.6 µM (inactive) | 52.5 µM (inactive) | 60.4 µM (inactive) | 70 µM (inactive) | 49.7 µM (inactive) | 30.8 µM (inactive) | > 100 µM (inactive) | 58.6 µM (inactive) | 81.3 µM (inactive) | > 100 µM (inactive) | 55.3 µM (inactive) | > 100 µM (inactive) | > 100 µM (inactive) | 84.9 | – | – | – | – | –
Cc1cc(C)c(N)c(CO)c1 | – | > 100 µM (inactive) | > 100 µM (inactive) | 42.8 µM (inactive) and 73.6 µM (inactive) | > 100 µM (inactive) | > 100 µM (inactive) | > 59.2 µM (inactive) | > 88.3 µM (inactive) and 95.3 µM (inactive) | 35.6 µM (inactive) and 19.3 µM (inactive) | – | > 100 µM (inactive) | > 100 µM (inactive) | – | > 100 | > 100 µM (inactive) | > 100 µM (inactive) | > 100 µM (inactive) | > 100 µM (inactive) | > 100 µM (inactive)
CCOc1ccc(NCC2CC/C(=C\c3ccccc3OC)C2=O)cc1 (stereo not given) | 1.94 µM (inactive) | 14.4 µM (inactive) | 5.18 µM (inactive) | 17.9 µM (inactive) | 16.1 µM (inactive) | 2.49 µM (inactive) | 19.5 µM (inactive) | 4.23 µM (inactive) | 4.33 µM (inactive) | 18.5 µM (inactive) | 7.1 µM (inactive) | 10.3 µM (inactive) | 13.8 µM (inactive) | 3.09 | – | – | – | – | –
COc1ccc2[nH]c3c(c2c1)[C@H](C)C[C@@H]1C(=O)N(c2ccccc2)C(=O)[C@H]31 | 16.1 µM (inactive) | 26.6 µM (inactive) | 17.8 µM (inactive) | 27.4 µM (inactive) | 39.4 µM (inactive) | 32.5 µM (inactive) | 14.9 µM (inactive) | 32.4 µM (inactive) | 20.3 µM (inactive) | 91.8 µM (inactive) | 27.1 µM (inactive) | 21.2 µM (inactive) | 31.3 µM (inactive) | 35.2 | – | – | – | – | –
O=C(/C=C/c1ccccc1)c1ccc(NCc2nc3ccccc3[nH]2)cc1 | 4.14 µM (inactive) | 13.3 µM (inactive) | 3.49 µM (inactive) | 4.35 µM (inactive) | 2.45 µM (inactive) | 2.48 µM (inactive) | 6.18 µM (inactive) | 2.75 µM (inactive) | 3.22 µM (inactive) | 10.8 µM (inactive) | 5.33 µM (inactive) | 2.17 µM (inactive) | 11.7 µM (inactive) | 4.11 | – | – | – | – | –
Cc1ccc(C)c(NC(=O)CC/C(=N\NC(=O)C(=O)NN)C(C)C(=O)c2ccc(O)cc2)c1 (stereo not given) | > 100 µM (inactive) | > 100 µM (inactive) | – | > 100 µM (inactive) | > 100 µM (inactive) | > 100 µM (inactive) | > 100 µM (inactive) | > 100 µM (inactive) | > 100 µM (inactive) | > 100 µM (inactive) | > 100 µM (inactive) | > 100 µM (inactive) | > 100 µM (inactive) | > 100 | – | – | – | – | –
CCOC(=O)NC(=O)c1cn(CCCOC(=O)CCCCCCCCCCC(=O)OCCCn2cc(C(=O)NC(=O)OCC)c(=O)n(C)c2=O)c(=O)n(C)c1=O | > 100 µM (inactive) | > 100 µM (inactive) | > 100 µM (inactive) | > 100 µM (inactive) | > 100 µM (inactive) | > 100 µM (inactive) | 67.8 µM (inactive) | > 100 µM (inactive) | > 100 µM (inactive) | > 100 µM (inactive) | > 100 µM (inactive) | > 100 µM (inactive) | > 100 µM (inactive) | > 100 | – | – | – | – | –
Cc1ccc(/N=N/c2cc(=O)[nH]c(=O)[nH]2)cc1C | – | 14.4 µM (inactive) | 14.6 µM (inactive) | 18.5 µM (inactive) | 15.8 µM (inactive) | 2.2 µM (inactive) | 16.4 µM (inactive) | 4.03 µM (inactive) | 5.58 µM (inactive) | 15.4 µM (inactive) | 4.74 µM (inactive) | 11.2 µM (inactive) | 19.4 µM (inactive) | 2.85 | 34 µM (inactive) | > 10 µM (inactive) | 11.9 µM (inactive) | 2.71 µM (inactive) | 14.7 µM (inactive)
CCOC(=O)/C(I)=C/c1cc(OC)c(OC)c(OC)c1 | 4.14 µM (inactive) | 8.89 µM (inactive) | 6.37 µM (inactive) | 4.89 µM (inactive) | 7.83 µM (inactive) | 1.93 µM (inactive) | 11.6 µM (inactive) | 3.55 µM (inactive) | 3.26 µM (inactive) | 6.52 µM (inactive) | 4.62 µM (inactive) | 9.08 µM (inactive) | 19.3 µM (inactive) | 3.9 | – | – | – | – | –
Cn1c2cc(O)cc(O)c2c(=O)c2c([N+](=O)[O-])cccc21 | > 100 µM (inactive) | > 100 µM (inactive) | > 100 µM (inactive) | > 100 µM (inactive) | > 100 µM (inactive) | > 100 µM (inactive) | > 100 µM (inactive) | > 100 µM (inactive) | > 100 µM (inactive) | > 100 µM (inactive) | > 100 µM (inactive) | > 100 µM (inactive) | > 100 µM (inactive) | > 100 | – | – | – | – | –
CC(C)CS(=O)(=O)/C(=C(\c1ccc(Br)cc1)S(=O)(=O)CC(C)C)c1ccc(Br)cc1 | > 100 µM (inactive) | > 100 µM (inactive) | > 100 µM (inactive) | > 100 µM (inactive) | 1.41 µM (inactive) | > 100 µM (inactive) | > 100 µM (inactive) | > 100 µM (inactive) | > 100 µM (inactive) | > 100 µM (inactive) | > 100 µM (inactive) | > 100 µM (inactive) | > 100 µM (inactive) | > 100 | – | – | – | – | –
COc1ccc(/C=C2\CCC(CCN(C)C)(C3=CCCC3)C2=O)cc1Br (stereo not given) | 2.06 µM (inactive) | 13.8 µM (inactive) | 9.08 µM (inactive) | 8.32 µM (inactive) | 1.71 µM (inactive) | 2.13 µM (inactive) | 2.97 µM (inactive) | 7.66 µM (inactive) | 3.46 µM (inactive) | 14 µM (inactive) | 9.95 µM (inactive) | 12.1 µM (inactive) | 6.93 µM (inactive) | 4.54 | – | – | – | – | –
